Results: US20240344062A1, “RIBOSOMAL RNA (rRNA) VARIANTS […] PROTEIN PRODUCTION CAPABILITIES” (THE BROAD INSTITUTE, INC., priority 2021, published 2024)

Tested on: gIII under o-RBS variants
Test: Two-stage selection of o-RBS/o-antiRBS pairs (phage titers post infection)
Conditions: seven o-RBS variants with o-antiRBSlib SPs

o-RBSH3: orthogonal ribosome binding site, SEQ ID NO: 7 (DNA UUUCCAAUAUACAGAUCUAUG; listed as RNA, chemistry not fully specified)
propagation (phage titers) post infection: highest titers
